Measurements from patent US20200181104A1, “SSAO INHIBITORS AND USES THEREOF” (METACRINE, INC., priority 2018, published 2020).
Where a name gives a salt, the structure may show the parent alone.

What follows are compounds tested against T1, Recombinant Human SSAO/VAP-1/AOC3 (Homo sapiens, UniProt Q16853) (assay: Human Semicarbazide-Sensitive Amine Oxidase (SSAO) Assay). Settings: recombinant enzyme, 30 minutes preincubation at 37° C., benzylamine substrate, Amplex Ultra Red/HRP fluorescence.
T1 construct: purchased R&D systems 3957-AO
T1 sequence (Q16853 1-763): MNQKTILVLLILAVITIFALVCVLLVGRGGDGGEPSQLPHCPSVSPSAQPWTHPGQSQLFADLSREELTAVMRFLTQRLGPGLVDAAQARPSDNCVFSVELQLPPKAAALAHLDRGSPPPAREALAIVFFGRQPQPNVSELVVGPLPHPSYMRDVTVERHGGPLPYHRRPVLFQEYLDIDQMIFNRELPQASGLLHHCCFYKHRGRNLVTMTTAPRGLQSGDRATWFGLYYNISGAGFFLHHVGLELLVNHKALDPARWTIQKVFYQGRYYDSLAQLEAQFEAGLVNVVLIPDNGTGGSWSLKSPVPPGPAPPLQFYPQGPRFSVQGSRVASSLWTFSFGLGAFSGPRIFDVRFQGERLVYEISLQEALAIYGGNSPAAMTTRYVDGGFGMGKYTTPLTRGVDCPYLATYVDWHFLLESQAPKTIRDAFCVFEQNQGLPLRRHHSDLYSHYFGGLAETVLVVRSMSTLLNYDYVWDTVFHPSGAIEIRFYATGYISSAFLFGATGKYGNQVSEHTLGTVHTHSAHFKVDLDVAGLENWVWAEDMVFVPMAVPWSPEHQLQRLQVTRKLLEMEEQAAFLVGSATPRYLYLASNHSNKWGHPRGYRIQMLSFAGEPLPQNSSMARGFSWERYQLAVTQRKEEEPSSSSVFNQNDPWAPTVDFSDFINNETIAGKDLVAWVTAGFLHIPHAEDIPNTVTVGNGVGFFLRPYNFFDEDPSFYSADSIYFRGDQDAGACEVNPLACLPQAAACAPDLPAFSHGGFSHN
Type: biochemical
Protocol: Compounds were dissolved in DMSO to provide a Concentration Response Curve (CRC; at 500 times the final concentration) over a range of 6-10 dilutions.
Recombinant Human SSAO/VAP-1/AOC3 (R&D systems; Catalog #3957-AO) was used to screen compound potency in vitro, according to previously described methods (J Pharmacol Exp Ther. 2013 November; 347(2):365-74). SSAO enzyme was suspended in 50 mM HEPES buffer to a working concentration of 2.5 μg/ml and 40 μL of this enzyme mixture was then added to each well of a F16 Black Maxisorp 96 well Plate (Nunc, Catalog #475515). Ten microliters of each test compound (at 5 times the final concentration) were added to each well, resulting in a final well volume of 50 μL of the enzyme and inhibitor mixture. The compounds were preincubated with the enzyme for 30 minutes at 37° C., prior to the addition of a 40 μL volume of Amplex Ultra Red (125 uM AUR; Molecular Probes, Catalog # A36006)/Horseradish peroxidase (2.5 U/ml HRP; Sigma-Aldrich Catalog # P8375) oxidase detection reagent containing cytochrome C ([…]; Sigma-Aldrich Catalog # C7752). Cytochrome C was included in the AUR/HRP detection mixture to reduce the background fluorescence that can occur via the spontaneous redox reaction between AUR and HRP. The SSAO enzyme reaction was then initiated by adding 10 μL of the SSAO substrate, benzylamine (Sigma-Aldrich Catalog # B5136), and SSAO activity was measured in kinetic mode over a 30-120 minute sampling period (excit. 544 nm; emit 590 nm; cut off 570 nm; medium gain) to obtain IC50 values for enzyme activity in each treatment well.

IC50, ≤ 10 nM:
COCCNC(=O)C12CCC(c3ccc(OC/C(=C/F)CN)cc3)(CC1)CC2 [Compound 2.15, (E)-4-(4-((2-(aminomethyl)-3-fluoroallyl)oxy)phenyl)-N-(2-methoxyethyl) bicyclo[2.2.2] octane-1-carboxamide]
NC/C(=C\F)COc1ccc(C23CCC(C(=O)NCC(F)F)(CC2)CC3)cc1 [Compound 2.113, (E)-4-(4-((2-(aminomethyl)-3-fluoroallyl)oxy)phenyl)-N-(2,2-difluoroethyl)bicyclo[2.2.2] octane-1-carboxamide]
NC/C(=C\F)COc1ccc(C23CCC(C(=O)NC4CCN(c5ccccn5)CC4)(CC2)CC3)cc1 [Compound 2.117, (E)-4-(4-((2-(aminomethyl)-3-fluoroallyl)oxy)phenyl)-N-(1-(pyridin-2-yl)piperidin-4-yl)bicyclo[2.2.2]octane-1-carboxamide]
CO[C@H]1C[C@@H](NC(=O)C23CCC(c4ccc(OC/C(=C/F)CN)cc4)(CC2)CC3)C1 [Compound 2.95, 4-(4-(((E)-2-(Aminomethyl)-3-fluoroallyl)oxy)phenyl)-N-(cis-3-methoxycyclobutyl)bicyclo[2.2.2]octane-1-carboxamide Hydrochloride]
NC/C(=C/F)COc1ccc(C23CCC(C(=O)NC4CCOCC4)(CC2)CC3)cc1 [Compound 2.06b, (Z)-4-(4-((2-(amino-methyl)-3-fluoroally)oxy)phenyl)-N-(tetrahydro-2H-pyran-4-yl)bicyclo[2.2.2]octane-1-carboxamide]
NC/C(=C\F)COc1ccc(C23CCC(C(=O)NC4(CO)CCOCC4)(CC2)CC3)cc1 [Compound 2.72, (E)-4-(4-((2-(aminomethyl)-3-fluoroallyl)oxy)phenyl)-N-(4-(hydroxymethyl)tetrahydro-2H-pyran-4-yl)bicyclo[2.2.2]octane-1-carboxamide]
NC/C(=C\F)COc1ccc(C23CCC(C(=O)N4CCC(O)CC4)(CC2)CC3)cc1 [Compound 2.14, (E)-(4-(4-((2-(aminomethyl)-3-fluoroallyl)oxy)phenyl)bicyclo[2.2.2]octan-1-yl) (4-hydroxypiperidin-1-yl)methanone]
CN(CCO)C(=O)C12CCC(c3ccc(OC/C(=C/F)CN)cc3)(CC1)CC2 [Compound 2.54, (E)-4-(4-((2-(aminomethyl)-3-fluoroallyl)oxy)phenyl)-N-(2-hydroxyethyl)-N-methylbicyclo[2.2.2]octane-1-carboxamide]
Cc1cnc(CNC(=O)C23CCC(c4ccc(OC/C(=C/F)CN)cc4)(CC2)CC3)cn1 [Compound 2.158, (E)-4-(4-((2-(aminomethyl)-3-fluoroallyl)oxy)phenyl)-N-((5-methylpyrazin-2-yl)methyl)bicyclo[2.2.2]octane-1-carboxamide]
CO[C@H]1C[C@H](CNC(=O)C23CCC(c4ccc(OC/C(=C/F)CN)cc4)(CC2)CC3)C1 [Compound 2.145, 4-(4-(((E)-2-(aminomethyl)-3-fluoroallyl)oxy)phenyl)-N-(((1r,3r)-3-methoxycyclobutyl)methyl) bicyclo[2.2.2]octane-1-carboxamide]
COC[C@H]1C[C@H](NC(=O)C23CCC(c4ccc(OC/C(=C/F)CN)cc4)(CC2)CC3)C1 [Compound 2.126, 4-(4-(((E)-2-(aminomethyl)-3-fluoroallyl)oxy)phenyl)-N-((1r,3r)-3-(methoxymethyl)cyclobutyl) bicyclo[2.2.2]octane-1-carboxamide]
CC1(C)CC(NC(=O)C23CC(c4ccc(OC/C(=C/F)CN)cc4)(C2)C3)CCO1 (stereo not shown) [Compound 3.01, (E)-3-(4-((2-(aminomethyl)-3-fluoroallyl)oxy)phenyl)-N-(2,2-dimethyltetrahydro-2H-pyran-4-yl)bicyclo[1.1.1]pentane-1-carboxamide]
Cc1n[nH]c(C)c1CNC(=O)C12CCC(c3ccc(OC/C(=C/F)CN)cc3)(CC1)CC2 [Compound 2.81, (E)-4-(4-((2-(aminomethyl)-3-fluoroallyl)oxy)phenyl)-N-((3,5-dimethyl-1H-pyrazol-4-yl)methyl)bicyclo[2.2.2]octane-1-carboxamide]
NC/C(=C\F)COc1ccc(C23CCC(NC(=O)C4CCOCC4)(CC2)CC3)cc1 [Compound 7, (E)-N-(4-(4-((2-(Aminomethyl)-3-fluoroallyl)oxy)phenyl)bicyclo[2.2.2]octan-1-yl)tetrahydro-2H-pyran-4-carboxamide Hydrochloride]
COCCN(C)C(=O)C12CCC(c3ccc(OC/C(=C/F)CN)cc3)(CC1)CC2 [Compound 2.79, (E)-4-(4-((2-(aminomethyl)-3-fluoroallyl)oxy)phenyl)-N-(2-methoxyethyl)-N-methylbicyclo[2.2.2]octane-1-carboxamide]
CC(C)CNC(=O)C12CCC(c3ccc(OC/C(=C/F)CN)cc3)(CC1)CC2 [Compound 2.88, (E)-4-(4-((2-(aminomethyl)-3-fluoroallyl)oxy)phenyl)-N-isobutylbicyclo[2.2.2]octane-1-carboxamide]
NC/C(=C\F)COc1ccc(C23CCC(NS(=O)(=O)C4CC4)(CC2)CC3)cc1 [Compound 7.03, (E)-N-(4-(4-((2-(aminomethyl)-3-fluoroallyl)oxy)phenyl)bicyclo[2.2.2]octan-1-yl)cyclopropanesulfonamide]
COCCC(=O)NC12CCC(c3ccc(OC/C(=C/F)CN)cc3)(CC1)CC2 [Compound 7.02, (E)-N-(4-(4-((2-(aminomethyl)-3-fluoroallyl)oxy)phenyl)bicyclo [2.2.2]octan-1-yl)-3-methoxypropanamide]
NC/C(=C\F)COc1ccc(C23CCC(C(=O)N4CC(OCCO)C4)(CC2)CC3)cc1 [Compound 2.44, (E)-(4-(4-((2-(aminomethyl)-3-fluoroallyl)oxy)phenyl)bicyclo [2.2.2]octan-1-yl)(3-(2-hydroxyethoxy)azetidin-1-yl)methanone]
NC/C(=C\F)COc1ccc(C23CCC(C(=O)NCCOC4CCOCC4)(CC2)CC3)cc1 [Compound 2.107]
C[C@H]1COCCN1C(=O)C12CCC(c3ccc(OC/C(=C/F)CN)cc3)(CC1)CC2 [Compound 2.22, (S,E)-(4-(4-((2-(aminomethyl)-3-fluoroallyl)oxy)phenyl)bicyclo[2.2.2]octan-1-yl)(3-methylmorpholino) methanone]
CO[C@@H]1CCCN(C(=O)C23CCC(c4ccc(OC/C(=C/F)CN)cc4)(CC2)CC3)C1 [Compound 2.111, (R,E)-(4-(4-((2-(aminomethyl)-3-fluoroallyl)oxy)phenyl)bicyclo [2.2.2]octan-1-yl)(3-methoxypiperidin-1-yl)methanone]
NC/C(=C\F)COc1ccc(C23CCC(C(=O)NCCN4CCOCC4)(CC2)CC3)cc1 [Compound 2.75, (E)-4-(4-((2-(aminomethyl)-3-fluoroallyl)oxy)phenyl)-N-(2-morpholinoethyl)bicyclo[2.2.2] octane-1-carboxamide]
COc1cccc(CNC(=O)C23CCC(c4ccc(OC/C(=C/F)CN)cc4)(CC2)CC3)n1 [Compound 2.130, (E)-4-(4-((2-(aminomethyl)-3-fluoroallyl)oxy)phenyl)-N-((6-methoxypyridin-2-yl)methyl)bicyclo[2.2.2]octane-1-carboxamide]
COCC1CN(C(=O)C23CCC(c4ccc(OC/C(=C/F)CN)cc4)(CC2)CC3)C1 [Compound 2.55, (E)-(4-(4-((2-(aminomethyl)-3-fluoroallyl)oxy)phenyl)bicyclo [2.2.2]octan-1-yl)(3-(methoxymethyl)azetidin-1-yl)methanone]
